These are literature values, as cited in US11278709B1, “Drug delivery device and methods for using same” (Pocket Naloxone Corp., priority 2021, dated 2022).

The conditions of the series: 4 mg dose via a nasal spray.

Turning to `C=CCN1CC[C@]23c4c5ccc(O)c4O[C@H]2C(=O)CC[C@@]3(O)[C@H]1C5` [naloxone], the AUClast was 7.95 ng·h/mL and the Cmax is on record as 4.83 ng/mL.
